Test results as given in patent US20190211317A1, “PEPTIDES AND NANOPARTICLES FOR INTRACELLULAR DELIVERY OF GENOME-EDITING MOLECULES” (Aadigen, LLC, priority 2016, published 2019).
Where “and” joins values, the source holds several entries; their conditions need not be identical. Equal values may be shown once. Non-standard residues stand in square brackets, D forms with d. Residues, ends and D or L forms follow the SMILES beside them. βAla = NCCC(=O)O

What was measured:
Swiss mice = assay: In vivo delivery of CAS9 mRNA by three CPPs: CAS9 expression in tissues (ELISA); parameters: species or system mouse; details: for ELISA signal for CAS9 protein expression: day 3 and day 6, CAS9 mRNA 5 μg i.v., 20:1; for CAS9 protein expression: other tissues examined
Description: Free CAS9 mRNA in physiological buffer was injected as a control.
At day 3, day 6, and day 10 following injection, animals were sacrificed and tissues including lung, liver, brain, kidney, heart, spleen, blood, pancreas, muscle, bone marrow, and intestine were collected. Tissues were homogenized and CAS9 protein levels in protein extracts were analyzed by ELISA using an antibody against CRISPR/Cas9 (SBI clone 7A9).

[1] = test system: endogenous EMX1 gene in primary human T cells; assay: EMX1 editing in primary human T cells with CAS9 mRNA, protein or plasmid plus gRNA (T7E1); type: cell-based
Description: CPP/CAS9 mRNA/gRNA complexes were formed by mixing the CAS9 mRNA (0.5 μg) and gRNA (5 μg) with CPP at a 20:1 molar ratio of CPP to nucleic acid (mRNA+gRNA) and incubating for 30 min at 37° C. prior to cell transfection. CPP/plasmid/gRNA complexes were formed by mixing CAS9 expressing plasmid (Addgene MLM3639-Plasmid #42252) (0.5 μg) and gRNA (5 μg) with CPP at a 20:1 molar ratio of CPP to nucleic acid (plasmid+gRNA) and incubating for 30 min at 37° C. prior to cell transfection. CPP/CAS9/gRNA complexes were formed by mixing preloaded CAS9/gRNA complexes (2.5 μg/5 μg CAS9/gRNA) with CPP at a 20:1 molar ratio of CPP to complex and incubating for 30 min at 37° C. prior to cell transfection.
T cells were transfected according to the protocol for suspension cells described in Example 13a. Lipofectamine 2000- and RNAiMAX-mediated delivery methods (Invitrogen Thermo Fisher France) were included as controls. EMX1 gene editing was analyzed at day 3, day 6, and day 10 by T7E1 assay and quantified using a Fragment Analyzer System.

[2] = test system: EGFP reporter gene in EGFP-U2OS, EGFP-HEK, EGFP-JURKAT cells; assay: EGFP reporter gene disruption from CPP delivery of CAS9:sgRNA (flow cytometry); type: cell-based, human; details: for reduction of EGFP-positive cells: EGFP-JURKAT; for decrease in EGFP expression: CAS9:gRNA 50 nM, CPP:cargo 20:1; for reduction of EGFP-expressing cells / loss of EGFP expression: JURKAT; for reduction of EGFP-expressing cells / loss of EGFP expression / loss of EGFP expression: 1 nM CAS9:gRNA; for loss of EGFP expression: both cell lines (U2OS, HEK);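 for all read-outs here: cells carrying one integrated EGFP reporter received peptide-complexed CAS9 preloaded 1:1 with EGFP sgRNA, cultured 72 h, then EGFP level read by flow cytometry, lipofectamine 2000 and RNAiMAX as positive controls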
Description: Efficacy of CPP-mediated delivery was quantified using a well-established CAS9-induced gene disruption method (Fu et al, 2013, supra), by targeting a specific site in the exogenous EGFP gene reporter in three human cell lines expressing EGFP (GFP-U2OS, EGFP-HEK, EGFP-JURKAT).
Stock solutions of amphipathic peptides were prepared at 1 mg/mL in distilled water and sonicated for 10 min. CAS9 protein was preloaded with purified EGFP sgRNA at a molar ratio of 1:1 and incubated for 10 min prior to forming complexes with the peptides. Preloaded CAS9/gRNA complexes (10 nM, 25 nM, and 50 nM) were mixed with CPPs at 5:1, 10:1 and 20:1 molar ratios of CPP to cargo and incubated for 30 min at 37° C. prior to cell transfection.
Cell line containing a single integrated EGFP reporter gene (GFP-U2OS, EGFP-HEK and EGFP-JURKAT) were cultured in Dulbecco's Modified Eagle's Medium (DMEM), supplemented with 2 mM glutamine, 1% antibiotics (streptomycin 10,000 μg/mL, penicillin, 10,000 IU/mL) and 10% (w/v) foetal calf serum (FCS) at 37° C. in a humidified atmosphere containing 5% CO2. A total of 150,000 cells seeded in a 35 mm dish the day prior to transfection were grown to 50-60% confluence and overlaid with 200 μl of preformed complexes, incubated for 3-5 min, then 400 μl of DMEM was added. After 30 min incubation at 37° C., 1 mL of fresh DMEM containing 16% FCS was added to reach a final FCS concentration of 10%, without removing the overlay of CPP/CAS9-gRNA complexes. Cells were returned to the incubator for 72 hours.
CAS9-induced double-strand break formation was analyzed using flow cytometry by monitoring level of EGFP expression. […] Both lipofectamine 2000 and RNAiMAX delivery methods were used as positive controls.

[3] = test system: endogenous EMX1 gene in U2OS, HEPG2 cells and primary human fibroblasts; assay: EMX1 editing from CPP delivery of CAS9-expressing plasmid and gRNA (T7E1); type: cell-based; details: the three cell types
Description: EMX1-targeting gRNAs were prepared as described above. CPP/plasmid/gRNA complexes were prepared by mixing 0.5 μg of a CAS9-expressing plasmid (Addgene MLM3639-Plasmid #42252) and 5 μg gRNA with CPP at a 20:1 molar ratio of CPP to nucleic acid (plasmid+gRNA) and incubating for 30 min at 37° C. prior to cell transfection. Suspension and adherent cells were transfected according to the protocols described in Example 13a. Lipofectamine 2000- and RNAiMAX-mediated delivery methods (Invitrogen Thermo Fisher France) were used as controls. EMX1 gene editing was analyzed at day 3 and day 6 by T7E1 assay and quantified using a Fragment Analyzer System.

[4] = test system: endogenous EMX1 gene in U2OS, HEPG2, K562 cells and primary human fibroblasts; assay: EMX1 editing from CPP delivery of CAS9 mRNA/gRNA (T7E1); type: cell-based
Description: CPP/CAS9 mRNA/gRNA complexes were formed by mixing the CAS9 mRNA (0.5 μg) and gRNA (5 μg) with CPP at a 20:1 molar ratio of CPP:cargo and incubating for 30 min at 37° C. prior to cell transfection. Suspension and adherent cells were transfected according to the protocols described in Example 13a. RNAiMAX-mediated delivery (Invitrogen Thermo Fisher France) was used as a control. EMX1 gene editing was analyzed at day 3 and day 6 by T7E1 assay and quantified using a Fragment Analyzer System.

[5] = CPP/CAS9 and CPP/CAS9:gRNA particle size, polydispersity, zeta potential (Zetasizer 4); type: physicochemical
Description: The CPP/CAS9 and CPP/CAS9/sgRNA particles were further characterized; the mean size, polydispersity and zeta potential were measured with Zetasizer 4 apparatus (Malvern Ltd). […] The mean size and the polydispersity of the CCP/CAS9 and CCP/CAS9:gRNA complexes were determined at 25° C. for 3 min per measurement and zeta potential was measured with Zetasizer 4 apparatus (Malvern Ltd).

primary human T cells = assay: CAS9 protein expression in primary human T cells after CAS9 mRNA or plasmid delivery (ELISA); type: cell-based; details: day 3
Description: T cells were isolated from PBMCs using anti-CD3/anti-CD28 antibodies bound to paramagnetic beads (Dynabeads ClinExVivo CD3/CD28, Invitrogen) at a ratio of 3:1 (beads:cells). The cells and beads were co-incubated for 2 hours at room temperature and CD3^+ cell enrichment was performed using Dynal ClinExVIVO MPC magnet (Thermo Fisher). The anti-CD3/anti-CD28 paramagnetic beads were removed, washed and concentrated. Cells in the CD3^+ fraction were resuspended in activation media at a concentration of 1×10^6 cells/ml with AIM-V medium (Thermo Fishers) supplemented with 10% fetal calf serum, 300 IU/ml IL2 and 50 ng/ml OKT3 (MuromonAB-CD3) for two days.
CPP/CAS9 complexes were formed by mixing the CAS9 mRNA (0.5 μg) with CPP at a 20:1 molar ratio of CPP:CAS9 mRNA and incubating for 30 min at 37° C. prior to cell transfection. CPP/CAS9-expressing plasmid complexes were formed by mixing the CAS9-expressing plasmid (Addgene MLM3639-Plasmid #42252) (0.5 μg) with CPP at a 20:1 molar ratio of CPP:plasmid and incubating for 30 min at 37° C. prior to cell transfection.
Cells were transfected according to the protocol for suspension cells described in Example 13a. RNAiMAX and lipofectamine 2000 lipid-based delivery methods (Invitrogen Thermo Fisher France) were used as controls, and transfections were performed following the manufacturer's instructions. CAS9 protein expression level was analyzed at multiple time points over a period of 10 days as determine by ELISA on protein extracts using antibodies against CRISPR/Cas9 obtained from Diagenode (Diagenode cat. No. C15200223) and ABCAM (clone 7A9-ab191468).

[6] = test system: endogenous EMX1 and exogenous EGFP reporter genes in GFP-U2OS, EGFP-JURKAT cells; assay: Delivery of multiple RGEN/gRNA complexes: EMX1 and EGFP editing; type: cell-based, human
Description: RNAiMAX delivery was used as positive control. Cells were treated as described previously and CAS9-induced NHEJ analyzed 72 hr after transfection. […] The deletion (indel) frequency in the EMX1 gene was quantified using the T7E1 assay and loss of EGFP expression was monitored by flow cytometry. Data for on-target mutations induced by RGEN/gRNA are reported as an average of 3 separate experiments.

PCSK9 = assay: In vivo CAS9 mRNA/gRNA targeting PCSK9: serum PCSK9 (ELISA); parameters: species or system mouse
Description: Polyadenylated and capped CAS9 mRNA was obtained from ThermoFisher, and gRNA (5 μg) targeting PCSK9 Exon 1 was obtained from Eurogentec. […] Free CAS9 mRNA/gRNA was injected as a control.
Blood samples were collected by saphenous vein bleeds at multiple time points (day 3, 6, 10, and 21), collecting no more than 100 μl or 10% of total blood volume per week. Serum levels of PCSK9 were determined by ELISA using the Mouse Proprotein Convertase 9/PCSK9 Quantikine ELISA Kit (MPC-900, R&DSystems).

[7] = Particle size, polydispersity and zeta potential with different cargoes (Zetasizer NANO ZS P); type: physicochemical; details: 20:1; for formation of stable nanoparticles: with CAS9-mRNA and CAS9-mRNA/gRNA complex
Description: The CPP/CAS9-protein, CPP/CAS9-protein/sgRNA, CPP/CAS9-mRNA, CPP/CAS-mRNA/sgRNA particles were characterized; the mean size, polydispersity, and zeta potential were measured with a Zetasizer NANO ZS P apparatus (Malvern Ltd).
The mean size and the polydispersity of the CCP/cargo complexes were determined at 25° C. for 5 min per measurement and zeta potential was measured with a Zetasizer NANO ZS P apparatus (Malvern Ltd).

[8] = test system: endogenous EMX1 gene in U2OS, JURKAT and K562 cells; assay: EMX1 gene editing from CPP delivery of CAS9/gRNA (T7E1 assay); type: cell-based, human
Description: RNAiMAX delivery was used as a positive control as it was previously reported to show better results than Lipofectamine 2000 (Zuris et al., 2015, supra). […] Cells were returned to the incubator for 72 hours.

[9] = test system: endogenous EMX1 gene in U2OS, HEPG2, K562 cells and primary human fibroblasts; assay: EMX1 editing from CPP delivery of CAS9 protein/gRNA (T7E1); type: cell-based; details: each of the cell types tested; 2.5 μg/5 μg CAS9/gRNA
Description: CPP/CAS9/gRNA complexes were prepared by mixing preloaded CAS9/gRNA complexes (2.5 μg/5 μg CAS9/gRNA) with CPP peptides at a 20:1 molar ratio of CPP to cargo and incubating for 30 min at 37° C. prior to cell transfection. Cells were transfected according to the protocols described in Example 13a, and RNAiMAX-mediated delivery (Invitrogen Thermo Fisher France) was used as a control. EMX1 gene editing was analyzed at day 3 and day 6 by T7E1 assay and quantified using a Fragment Analyzer System.

[10] = test system: U2OS and HEPG2 cell lines and primary human fibroblasts; assay: CAS9 protein expression after CPP delivery of CAS9-expressing plasmid (ELISA); type: cell-based; details: day 6
Description: CPP/plasmid complexes were prepared by mixing 0.5 μg of a CAS9-expressing plasmid (Addgene MLM3639-Plasmid #42252) with CPP at a 20:1 molar ratio of CPP:cargo and incubating for 30 min at 37° C. prior to cell transfection. Cells were transfected according to the protocols for adherent and suspension cells described in Example 13a. Lipofectamine 2000 was used as lipid-based delivery control. CAS9 protein expression level was analyzed at multiple time points over a period of 10 days as determined by ELISA on protein extracts using antibodies against CRISPR/Cas9 obtained from Diagenode (Diagenode cat. No. C15200223) and ABCAM (clone 7A9-ab191468).

[11] = test system: U2OS, HEPG2, K562 cells and primary human fibroblasts; assay: CAS9 protein expression after CPP delivery of CAS9 mRNA (ELISA); type: cell-based; details: day 3
Description: CPP/CAS9 mRNA complexes were formed by mixing the CAS9 mRNA (0.5 μg) with CPP at a 20:1 molar ratio of CPP:CAS9 mRNA and incubating for 30 min at 37° C. prior to cell transfection. Cells were transfected according to optimized protocols for either adherent or suspension cell lines.
Human primary fibroblasts were freshly obtained and grown in flasks pre-coated with a gelatin-based coating solution and incubated in Culture Complete Growth Medium for 3 days before expansion and treatment. U2OS cells were cultured in Dulbecco's Modified Eagle's Medium (DMEM), supplemented with 2 mM glutamine, 1% antibiotics (streptomycin 10,000 μg/mL, penicillin, 10,000 IU/mL) and 10% (w/v) foetal calf serum (FCS), at 37° C. in a humidified atmosphere containing 5% CO2. 35 mm dishes seeded with 150,000 cells the day prior to transfection were grown to 50-60% confluence and set up to be at about 70% confluences at the time of transfection. Before transfection, cells were washed with DMEM (2×) followed by PBS (1×). Cells were then overlaid with 0.2 ml of complex solution (16 μl CPP/Cargo complex in water+184 μl OPTiMEM without antibiotics), mixed gently, and incubated for 10 min at 37° C. 0.8 mL of fresh OPTiMEM or DMEM was then added and cells were incubated for 20 min at 37° C. 2 mL of complete OPTiMEM (high glucose) or DMEM containing 11.4% FCS was then added in order to reach a final FCS concentration of 10%, without removing the overlay of CPP/Cargo complexes. Cells were returned to the incubator (37° C., 5% CO2) and assayed at 72 hours post transfection.
K562 and HEpG2 cells were set up to be at about 70% confluence at the time of transfection. The cells were maintained in high glucose DMEM media with 10% serum. Before transfection, cells were harvested by centrifugation, then washed with DMEM (2×) followed by PBS (1×). Cells were then resuspended in 0.2 ml of complex solution (16 μl CPP/Cargo complex in water+184 μl OPTiMEM without antibiotics), mixed gently, and incubated for 10 min at 37° C. 0.8 mL of fresh OPTiMEM was then added and cells were incubated for 20 min at 37° C. 2 mL of complete OPTiMEM (high glucose) containing 11.4% FCS was then added in order to reach a final FCS concentration of 10%, without removing the overlay of CPP/Cargo complexes. Cells were returned to the incubator (37° C., 5% CO2) and assayed at 72 hours post transfection.
RNAiMAX lipid-based delivery (Invitrogen Thermo Fisher France) was used as a control and transfections were performed following the manufacturer's instructions. CAS9 expression level was analyzed at multiple time points over a period of 10 days as determined by ELISA on protein extracts using antibodies against CRISPR/Cas9 obtained from Diagenode (Diagenode cat. No. C15200223) and ABCAM (clone 7A9-ab191468).

[12] = CAS9-expressing plasmid and gRNA, day 3
[13] = day 1, CAS9 mRNA 5 μg/gRNA 5 μg single i.v.
[14] = with CAS9-mRNA and CAS9-mRNA/gRNA

CC(C)C[C@H](NC(=O)CCN)C(=O)N[C@@H](CCCNC(=N)N)C(=O)N[C@@H](Cc1c[nH]c2ccccc12)C(=O)N[C@@H](Cc1c[nH]c2ccccc12)C(=O)N[C@@H](CC(C)C)C(=O)N[C@@H](CCCNC(=N)N)C(=O)N[C@@H](Cc1c[nH]c2ccccc12)C(=O)N[C@@H](C)C(=O)N[C@@H](CO)C(=O)N[C@@H](CCCNC(=N)N)C(=O)N[C@@H](Cc1c[nH]c2ccccc12)C(=O)N[C@@H](Cc1ccccc1)C(=O)N[C@@H](CO)C(=O)N[C@@H](CCCNC(=N)N)C(=O)N[C@@H](Cc1c[nH]c2ccccc12)C(=O)N[C@@H](C)C(=O)N[C@@H](Cc1c[nH]c2ccccc12)C(=O)N[C@@H](Cc1c[nH]c2ccccc12)C(=O)N[C@@H](CCCNC(=N)N)C(=O)O [VEPEP-9]
CAS9 expression (Swiss mice; day 10, brain): CAS9 expression was observed
CAS9 expression (Swiss mice; day 10, liver): CAS9 expression was observed
CAS9 expression (Swiss mice; day 10, lymph node): CAS9 expression was observed
ELISA signal for CAS9 protein expression (Swiss mice; liver): > 8 times that of background
CAS9 protein expression (Swiss mice): Little to no increase
mean indel frequencies [1, 12]: about 30%
mean indel frequencies ([1]; CAS9 protein/gRNA): about 20%
reduction of EGFP-positive cells [2]: 22%
decrease in EGFP expression ([2]; HEK): 58%
reduction of EGFP-expressing cells / loss of EGFP expression [2]: no change in EGFP expression
decrease in EGFP expression ([2]; U2OS): 55%
loss of EGFP expression [2]: 5%
mean indel frequencies [3]: 35-40%
mean indel frequencies [4]: about 10%
PI ([5]; Cas9:gRNA, molar ratio 20/1): 0.58 and 0.58 ± 0.1
Size ([5]; Cas9:gRNA, molar ratio 20/1): 170±10 nm
zeta ([5]; Cas9:gRNA, molar ratio 20/1): 39 ± 8 MV
Pt ([5]; Cas9, molar ratio 20/1): 0.45 ± 0.1
Size ([5]; Cas9, molar ratio 20/1): 280 ± 20 nm
zeta ([5]; Cas9, molar ratio 20/1): 32 ± 5 mV
formation of stable particles with preloaded CAS9:gRNA complex ([5]; molar ratio 10:1): neither CADY nor VEPEP-9 formed stable particles
ELISA signal for CAS9 protein expression (primary human T cells; CAS9-expressing plasmid 0.5 μg): about 4 times the background
ELISA signal for CAS9 protein expression (primary human T cells; CAS9 mRNA 0.5 μg): about 4 times the background
Mean indel Frequency ± S.E.M ([6]; JURKAT, EGFP): 15 ± 8%
Mean indel Frequency ± S.E.M ([6]; JURKAT, EMX1): 10 ± 2%
Mean indel Frequency ± S.E.M ([6]; U2OS, EGFP, 25 nM each complex): 32 ± 4%
Mean indel Frequency ± S.E.M ([6]; U2OS, EMX1): 31 ± 5%
decrease of serum levels of PSCK9 (PCSK9; [13]): 13%
decrease of serum levels of PSCK9 (PCSK9; day 3): 29%
decrease of serum levels of PSCK9 (PCSK9; day 6): 31%
decrease of serum levels of PSCK9 (PCSK9; day 10): 27%
decrease of serum levels of PSCK9 (PCSK9; day 14): 25%
decrease of serum levels of PSCK9 (PCSK9; day 20): 24%
formation of stable nanoparticles [7]: able to form stable nanoparticles
Mean diameter [7, 14]: ~120 nm
mean particle size ([7]; with preloaded CAS9-protein/gRNA complex): 210±20
Mean indel Frequency ± S.E.M ([8]; JURICAT, CAS9/sgRNA 25 nM): 21% and 21 ± 7%
Mean indel Frequency ± S.E.M ([8]; JURKAT, CAS9/sgRNA 50 nM): 21 ± 5%
Mean indel Frequency ± S.E.M ([8]; K562, CAS9/sgRNA 25 nM): 29% and 29 ± 7%
Mean indel Frequency ± S.E.M ([8]; K562, CAS9/sgRNA 50 nM): 25 ± 5%
Mean indel Frequency ± S.E.M ([8]; U2OS, CAS9/sgRNA 25 nM, 20:1): 27% and 27 ± 3%
Mean indel Frequency ± S.E.M ([8]; U2OS, CAS9/sgRNA 50 nM): 30 ± 6%

CC(C)C[C@H](NC(=O)CCN)C(=O)N[C@@H](Cc1c[nH]c2ccccc12)C(=O)N[C@@H](CCCNC(=N)N)C(=O)N[C@@H](C)C(=O)N[C@@H](CC(C)C)C(=O)N[C@@H](Cc1c[nH]c2ccccc12)C(=O)N[C@@H](CCCNC(=N)N)C(=O)N[C@@H](CC(C)C)C(=O)N[C@@H](Cc1c[nH]c2ccccc12)C(=O)N[C@@H](CCCNC(=N)N)C(=O)N[C@@H](CO)C(=O)N[C@@H](CC(C)C)C(=O)N[C@@H](Cc1c[nH]c2ccccc12)C(=O)N[C@@H](CCCNC(=N)N)C(=O)N[C@@H](CC(C)C)C(=O)N[C@@H](CC(C)C)C(=O)N[C@@H](Cc1c[nH]c2ccccc12)C(=O)N[C@@H](CCCCN)C(=O)N[C@@H](C)C(=O)O [VEPEP-6] (H-[βAla]LWRALWRLWRSLWRLLWKA-OH; N-terminus and C-terminus assumed)
CAS9 expression (Swiss mice; day 10, brain): CAS9 expression was observed
CAS9 expression (Swiss mice; day 10, liver): CAS9 expression was observed
CAS9 expression (Swiss mice; day 10, lung): CAS9 expression was observed
ELISA signal for CAS9 protein expression (Swiss mice; liver): > 15 times that of background
CAS9 expression (Swiss mice; lung): about 8 times that of background
CAS9 protein expression (Swiss mice): Little to no increase
mean indel frequencies [9]: no significant EMX1 gene editing
mean indel frequencies [1, 12]: little to no EMX1 gene editing
mean indel frequencies ([1]; CAS9 protein/gRNA): little to no EMX1 gene editing
ELISA signal for CAS9 protein expression ([10]; U2OS and HEPG2): about 4 times the background
ELISA signal for CAS9 protein expression ([10]; primary human fibroblasts): about 2 times the background
ELISA signal for CAS9 protein expression ([11]; U2OS, K562, HepG2, CAS9 mRNA 0.5 μg): ~30 times the background
ELISA signal for CAS9 protein expression ([11]; primary human fibroblasts): about 20 times the background
reduction of EGFP-positive cells [2]: no significant change
decrease in EGFP expression ([2]; HEK): 30%
reduction of EGFP-expressing cells / loss of EGFP expression [2]: no change in EGFP expression
decrease in EGFP expression ([2]; U2OS): 25%
loss of EGFP expression [2]: no change in EGFP expression
mean indel frequencies [4]: about 60%
ELISA signal for CAS9 protein expression (primary human T cells; CAS9-expressing plasmid 0.5 μg): little to no CAS9 expression
ELISA signal for CAS9 protein expression (primary human T cells; CAS9 mRNA 0.5 μg): ~17 times the background
decrease of serum levels of PSCK9 (PCSK9; [13]): 64%
decrease of serum levels of PSCK9 (PCSK9; day 3): 73%
decrease of serum levels of PSCK9 (PCSK9; day 6): 75%
decrease of serum levels of PSCK9 (PCSK9; day 10): 73%
decrease of serum levels of PSCK9 (PCSK9; day 14): 71%
decrease of serum levels of PSCK9 (PCSK9; day 20): 70%
formation of stable nanoparticles [7]: able to form stable nanoparticles
Mean diameter [7, 14]: ~100 nm
polydispersity index (PI) [7, 14]: 0.2
